These results are taken from patent publication US20200148646A1, “6-S[…] 7-S[…] ANALOGS AND THE USE THEREOF” (Purdue Pharma, L.P., priority 2013, published 2020).

Type in all cases: biochemical
For assay [1], the target named is T1, μ-opioid receptor (Homo sapiens, UniProt P35372). Briefly: μ-opioid receptor [35S]GTPγS functional assay, U-2 OS cells. Also on record: host or cells: U-2 OS cells. The note with it: for Emax: U2-OS cells, relative to DAMGO. The procedure:
(§1) [^35S]GTPγS functional assays were conducted using freshly thawed μ-receptor membranes prepared in-house from a cell line expressing recombinant opioid receptor in a HEK-293, CHO or U-2 OS cell background, or purchased from a commercial source (Perkin Elmer, Shelton, Conn.; or DiscovRx, Fremont, Calif.). Assay reactions were prepared by sequentially adding the following reagents to binding buffer (100 mM NaCl, 10 mM MgCl2, 20 mM HEPES, pH 7.4) on ice (final concentrations indicated): membrane protein (0.026 mg/mL), saponin ([…]), GDP ([…]) and [^35S]GTPγS (0.20 nM; Perkin Elmer, Shelton, Conn.). The prepared membrane solution (190 l/well) was transferred to 96-shallow well polypropylene plates containing 10 μl of 20× concentrated stock solutions of the agonist [D-Ala^2, N-methyl-Phe^4 Gly-ol^5]-enkephalin (DAMGO) prepared in dimethyl sulfoxide (DMSO). Plates were incubated for 30 min at about 25° C. with shaking. Reactions were terminated by rapid filtration onto 96-well Unifilter GF/B filter plates (Perkin Elmer, Shelton, Conn.) using a 96-well tissue harvester (Perkin Elmer, Shelton, Conn.) followed by three filtration washes with 200 μl of ice-cold wash buffer (10 mM NaH2PO4, 10 mM Na2HPO4, pH 7.4). Filter plates were subsequently dried at 50° C. for 2-3 hr. BetaScint scintillation cocktail (Perkin Elmer, Shelton, Conn.) was added (50 μl/well) and plates were counted using a Packard Top-Count for 1 min/well. Data were analyzed using the sigmoidal dose-response curve fitting functions in GraphPad PRISM v. 3.0, or an in-house function for non-linear, sigmoidal dose-response curve-fitting.
(§2) μ GTP EC50 is the concentration of a compound providing 50% of the maximal response for the compound at a μ-opioid receptor.
(§3) μ GTP Emax (%) is the maximal effect elicited by a compound relative to the effect elicited by DAMGO, a standard agonist. Generally, the μ GTP Emax (%) value measures the efficacy of a compound to treat or prevent pain or other Conditions.
(§4) In TABLE 2A, activity response of certain Compounds of the Invention at the μ- and κ-opioid receptors using U-2 OS cells was determined as described above for functional assays.
On the technique in general: Binding of GTPγS marks nucleotide exchange on a G protein.

Another assay addresses human κ opioid receptor (Homo sapiens, UniProt P41145). Briefly: κ-opioid receptor [35S]GTPγS functional assay, U-2 OS cells. Also on record: expressed in transfected cells; host or cells: U-2 OS cells (in-house membranes). The note with it: for Emax: U2-OS cells, relative to U69,593. The procedure: Membranes from recombinant HEK-293 cells, CHO or U-2 OS cells expressing the recombinant human K opioid receptor (K) were prepared by lysing cells in ice cold hypotonic buffer (2.5 mM MgCl2, 50 mM HEPES, pH 7.4) (10 mL/10 cm dish) followed by homogenization with a tissue grinder/Teflon pestle. Functional [^35S]GTPγS binding assays were conducted as follows. K opioid receptor membrane solution was prepared by sequentially adding final concentrations of 0.026 μg/μl κ membrane protein (in-house), 10 μg/mL saponin, 3 μM GDP and 0.20 nM [^35S]GTPγS to binding buffer (100 mM NaCl, 10 mM MgCl2, 20 mM HEPES, pH 7.4) on ice. The prepared membrane solution (190 μl/well) was transferred to 96-shallow well polypropylene plates containing 10 μl of 20× concentrated stock solutions of agonist prepared in DMSO. Plates were incubated for 30 min at a temperature of about 25° C. with shaking. Reactions were terminated by rapid filtration onto 96-well Unifilter GF/B filter plates (Perkin Elmer, Shelton, Conn.) using a 96-well tissue harvester (Packard) and followed by three filtration washes with 200 μl ice-cold binding buffer (10 mM NaH2PO4, 10 mM Na2HPO4, pH 7.4). Filter plates were subsequently dried at 50° C. for 2-3 hours. Fifty μl/well scintillation cocktail (Perkin Elmer, Shelton, Conn.) was added and plates were counted in a Packard Top-Count for 1 min/well.
κ GTP EC50 is the concentration of a compound providing 50% of the maximal response for the compound at a κ receptor.
κ GTP Emax (%) is the maximal effect elicited by a compound relative to the effect elicited by U69,593.
as §4

Assay [2] has as its target T1, μ-opioid receptor. The assay can be described thus: μ-opioid receptor [35S]GTPγS functional assay, HEK-293 or CHO cells. The note with it: for Emax: HEK-293 or CHO cells, relative to DAMGO. The procedure: as §1, §2, §3
In TABLE 2, activity response of certain Compounds of the Invention at the μ- and κ-opioid receptors using HEK-293 or CHO cells was determined as described above for functional assays.

As a reminder, the EC50 is the concentration needed to bring the measured effect to its halfway point. What is called Emax is the greatest response seen or fitted, relative to the assay's reference.

human κ opioid receptor, sequence (P41145 whole entry): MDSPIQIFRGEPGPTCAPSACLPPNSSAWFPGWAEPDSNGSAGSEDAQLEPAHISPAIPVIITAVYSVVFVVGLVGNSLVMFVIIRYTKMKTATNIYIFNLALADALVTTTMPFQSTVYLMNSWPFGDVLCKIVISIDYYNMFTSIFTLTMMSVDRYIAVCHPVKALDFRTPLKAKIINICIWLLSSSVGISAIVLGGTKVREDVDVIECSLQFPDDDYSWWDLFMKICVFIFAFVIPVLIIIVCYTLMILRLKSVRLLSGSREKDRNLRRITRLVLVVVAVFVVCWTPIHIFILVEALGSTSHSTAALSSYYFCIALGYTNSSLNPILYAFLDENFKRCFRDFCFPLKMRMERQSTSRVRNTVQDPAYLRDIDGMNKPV
T1 sequence (P35372 whole entry, species assumed): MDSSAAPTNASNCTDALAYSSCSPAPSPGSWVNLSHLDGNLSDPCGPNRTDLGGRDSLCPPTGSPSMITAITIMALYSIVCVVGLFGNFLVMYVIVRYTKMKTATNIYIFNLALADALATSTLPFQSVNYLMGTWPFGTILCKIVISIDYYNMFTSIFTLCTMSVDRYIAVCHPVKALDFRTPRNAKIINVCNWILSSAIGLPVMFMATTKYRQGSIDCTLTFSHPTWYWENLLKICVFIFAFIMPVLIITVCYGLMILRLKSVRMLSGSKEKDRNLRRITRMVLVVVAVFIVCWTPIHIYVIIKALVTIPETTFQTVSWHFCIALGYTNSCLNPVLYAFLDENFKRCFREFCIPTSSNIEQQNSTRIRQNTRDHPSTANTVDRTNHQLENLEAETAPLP

Turning to `Oc1ccc2c(c1)[C@]13CCN(CC4CC4)[C@H](C2)[C@]1(O)C[C@H](CC1CCCC1)[C@H](O)C3` [Compound 54, (4bR,6R,7S,8aS,9R)-7-(cyclopentylmethyl)-11-(cyclopropylmethyl)-5,6,7,8,9,10-hexahydro-8aH-9,4b-(epiminoethano)phenanthrene-3,6,8a-triol], on μ-opioid receptor [1], the EC50 is above 20000 nM and the Emax amounted to 3%. At human κ opioid receptor, the midpoint of the response, the EC50, lay at 32.1 ± 2.76 nM and the Emax turned out to be 97.7 ± 3.93%.
On to `CC(C)C(=O)N[C@H]1C[C@@]2(O)[C@H]3Cc4ccc(O)cc4[C@@]2(CCN3CC2CC2)C[C@H]1O` [Compound 58, N-((4bR,6R,7S,8aS,9R)-11-(cyclopropylmethyl)-3,6,8a-trihydroxy-6,7,8,8a,9,10-hexahydro-5H-9,4b-(epiminoethano)phenanthren-7-yl)isobutyramide], for which the EC50 is 80.9 ± 15.1 nM at μ-opioid receptor [1] and 38.1 ± 2.2 nM at human κ opioid receptor. Also, the Emax at μ-opioid receptor [1] stood at 19.3 ± 1.45%; on human κ opioid receptor it was 101 ± 1.2%.
Take `CC[C@H](C)C(=O)N[C@H]1C[C@@]2(O)[C@H]3Cc4ccc(O)cc4[C@@]2(CCN3CC2CC2)C[C@H]1O` [Compound 59, (S)—N-((4bR,6R,7S,8aS,9R)-11-(cyclopropylmethyl)-3,6,8a-trihydroxy-6,7,8,8a,9,10-hexahydro-5H-9,4b-(epiminoethano)phenanthren-7-yl)-2-methylbutanamide]: the EC50 on μ-opioid receptor [1] was 45 ± 8.96 nM; at human κ opioid receptor it was 35.6 ± 4.27 nM. The figures for the Emax at μ-opioid receptor [1] and on human κ opioid receptor were 22.3 ± 1.45% and 98.3 ± 3.18%, respectively.
At μ-opioid receptor [1], `CC(C)CC(=O)N[C@H]1C[C@@]2(O)[C@H]3Cc4ccc(O)cc4[C@@]2(CCN3CC2CC2)C[C@H]1O` [Compound 60, N-((4bR,6R,7S,8aS,9R)-11-(cyclopropylmethyl)-3,6,8a-trihydroxy-6,7,8,8a,9,10-hexahydro-5H-9,4b-(epiminoethano)phenanthren-7-yl)-3-methylbutanamide] showed an EC50 of 54.7 ± 8.1 nM and a maximal effect (Emax) of 25.3 ± 0.33%. Also, at human κ opioid receptor, the EC50 was 31.4 ± 3.7 nM and the Emax was determined as 106 ± 6.06%.
Regarding `CC(C)CCC(=O)N[C@H]1C[C@@]2(O)[C@H]3Cc4ccc(O)cc4[C@@]2(CCN3CC2CC2)C[C@H]1O` [Compound 61, N-((4bR,6R,7S,8aS,9R)-11-(cyclopropylmethyl)-3,6,8a-trihydroxy-6,7,8,8a,9,10-hexahydro-5H-9,4b-(epiminoethano)phenanthren-7-yl)-4-methylpentanamide], at μ-opioid receptor [1], the EC50 turned out to be 61.6 ± 5.41 nM and the Emax is 26.7 ± 0.88%. On human κ opioid receptor, the EC50 came out at 15.4 ± 2.43 nM and the Emax stood at 97.7 ± 2.19%.
In the case of `O=C(N[C@H]1C[C@@]2(O)[C@H]3Cc4ccc(O)cc4[C@@]2(CCN3CC2CC2)C[C@H]1O)C1CC1` [Compound 64, N-((4bR,6R,7S,8aS,9R)-11-(cyclopropylmethyl)-3,6,8a-trihydroxy-6,7,8,8a,9,10-hexahydro-5H-9,4b-(epiminoethano)phenanthren-7-yl)cyclopropanecarboxamide], at μ-opioid receptor [1], the response was half-maximal at 112 ± 19.3 nM (EC50) and the Emax came out at 7.33 ± 0.33%. On human κ opioid receptor, the EC50 is 48.3 ± 3.1 nM and the Emax stood at 93.7 ± 2.33%.
On μ-opioid receptor [1], `O=C(N[C@H]1C[C@@]2(O)[C@H]3Cc4ccc(O)cc4[C@@]2(CCN3CC2CC2)CC1O)C1CCCCC1` (stereo partly drawn) [Compound 65, N-((4bR,7S,8aS,9R)-11-(cyclopropylmethyl)-3,6,8a-trihydroxy-6,7,8,8a,9,10-hexahydro-5H-9,4b-(epiminoethano)phenanthren-7-yl)cyclohexanecarboxamide] displayed an EC50 of 68.4 ± 13 nM and an Emax of 26.7 ± 0.67%. On human κ opioid receptor, this compound displayed an EC50 of 15.9 ± 2.09 nM and an Emax of 106 ± 1.89%.
Taken in the same sequence, the figures for `O=C(N[C@H]1C[C@@]2(O)[C@H]3Cc4ccc(O)cc4[C@@]2(CCN3CC2CC2)C[C@H]1O)c1ccccc1` [Compound 66, N-((4bR,6R,7S,8aS,9R)-11-(cyclopropylmethyl)-3,6,8a-trihydroxy-6,7,8,8a,9,10-hexahydro-5H-9,4b-(epiminoethano)phenanthren-7-yl)benzamide] were 114 ± 14.5 nM, 15 ± 0.58%, 39.2 ± 4.27 nM and 71.7 ± 1.2%.
Taken in the same sequence, the figures for `CC(C)C[C@H]1C[C@@]2(O)[C@H]3Cc4ccc(O)cc4[C@@]2(CCN3CC2CC2)C[C@H]1O` [Compound 67, (4bR,6R,7S,8aS,9R)-11-(cyclopropylmethyl)-7-isobutyl-5,6,7,8,9,10-hexahydro-8aH-9,4b-(epiminoethano)phenanthrene-3,6,8a-triol] were above 20000 nM, 2%, 55.5 ± 8.5 nM and 89.3 ± 1.67%.
At μ-opioid receptor [2], `Oc1ccc2c(c1)[C@]13CCN(CC4CC4)[C@H](C2)[C@]1(O)C[C@H](Cc1ccccc1)[C@H](O)C3` [Compound 103, (4bR,6R,7S,8aS,9R)-7-benzyl-11-(cyclopropylmethyl)-5,6,7,8,9,10-hexahydro-8aH-9,4b-(epiminoethano)phenanthrene-3,6,8a-triol] registered an EC50 above 20000 nM and an Emax of 1%.
Taken in the same sequence, the figures for `CC(C)C(=O)N[C@H]1C[C@@]2(O)[C@H]3Cc4ccc(O)cc4[C@@]2(CCN3C)C[C@H]1O` [Compound 104, N-((4bR,6R,7S,8aS,9R)-3,6,8a-trihydroxy-11-methyl-6,7,8,8a,9,10-hexahydro-5H-9,4b-(epiminoethano)phenanthren-7-yl)isobutyramide] were 15500 ± 1320 nM and 23 ± 1.53%.
On μ-opioid receptor [2], `CC(C)CCC(=O)N[C@H]1C[C@@]2(O)[C@H]3Cc4ccc(O)cc4[C@@]2(CCN3C)CC1O` (stereo partly drawn) [Compound 105, 4-methyl-N-((4bR,7S,8aS,9R)-3,6,8a-trihydroxy-11-methyl-6,7,8,8a,9,10-hexahydro-5H-9,4b-(epiminoethano)phenanthren-7-yl)pentanamide] had an EC50 of 3650 ± 294 nM and an Emax of 77 ± 2.65%.
On to `CC(C)CCCC(=O)N[C@H]1C[C@@]2(O)[C@H]3Cc4ccc(O)cc4[C@@]2(CCN3C)CC1O` (stereo partly drawn) [Compound 106, 5-methyl-N-((4bR,7S,8aS,9R)-3,6,8a-trihydroxy-11-methyl-6,7,8,8a,9,10-hexahydro-5H-9,4b-(epiminoethano)phenanthren-7-yl)hexanamide], for which, at μ-opioid receptor [2], the EC50 stood at 635 ± 43.7 nM and the Emax amounted to 82.3 ± 1.86%.
With `CN(C)[C@@H]1CC[C@@]2(O)[C@H]3Cc4ccc(O)cc4[C@@]2(CCN3C)C1` [Compound 107, (4bR,6R,8aS,9R)-6-(dimethylamino)-11-methyl-5,6,7,8,9,10-hexahydro-8aH-9,4b-(epiminoethano)phenanthrene-3,8a-diol], at μ-opioid receptor [2], a half-maximal response (EC50) required 1290 ± 20.3 nM and the Emax was found to be 36.3 ± 1.2%.
On μ-opioid receptor [2], `CN1CC[C@]23C[C@@H](O)[C@@H](NC(=O)c4ccccc4)C[C@@]2(O)[C@H]1Cc1ccc(O)cc13` [Compound 108, N-((4bR,6R,7S,8aS,9R)-3,6,8a-trihydroxy-11-methyl-6,7,8,8a,9,10-hexahydro-5H-9,4b-(epiminoethano)phenanthren-7-yl)benzamide] registered an EC50 of 2190 ± 211 nM and an Emax of 48.4 ± 0.66%.
